{
  "source": "patent US10670605B2",
  "about": "“Cysteine reactive probes and uses thereof” (The Scripps Research Institute, priority 2015, dated 2020)",
  "test_in_all_cases": "isoTOP-ABPP of compound-treated primary human T cells",
  "assay_type_in_all_cases": "cell-based",
  "key": {"[1]": {"target": "T1, Cys residues in primary human T cells (Homo sapiens, UniProt Q9Y6C9)", "T1 sequence (Q9Y6C9 1-303)": "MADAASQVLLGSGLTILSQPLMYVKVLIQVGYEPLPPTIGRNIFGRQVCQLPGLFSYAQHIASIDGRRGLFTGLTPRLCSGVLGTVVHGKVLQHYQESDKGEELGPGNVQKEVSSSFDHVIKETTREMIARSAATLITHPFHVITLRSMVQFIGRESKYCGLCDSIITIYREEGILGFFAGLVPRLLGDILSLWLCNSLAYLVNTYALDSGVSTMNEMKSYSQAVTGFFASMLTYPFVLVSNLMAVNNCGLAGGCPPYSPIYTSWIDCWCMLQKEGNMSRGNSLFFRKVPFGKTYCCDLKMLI", "details": "MTCH2 C296 (Q9Y6C9)"}, "[2]": {"target": "T2, Cys residues in primary human T cells (Homo sapiens, UniProt P49588)", "T2 sequence (P49588 1-968)": "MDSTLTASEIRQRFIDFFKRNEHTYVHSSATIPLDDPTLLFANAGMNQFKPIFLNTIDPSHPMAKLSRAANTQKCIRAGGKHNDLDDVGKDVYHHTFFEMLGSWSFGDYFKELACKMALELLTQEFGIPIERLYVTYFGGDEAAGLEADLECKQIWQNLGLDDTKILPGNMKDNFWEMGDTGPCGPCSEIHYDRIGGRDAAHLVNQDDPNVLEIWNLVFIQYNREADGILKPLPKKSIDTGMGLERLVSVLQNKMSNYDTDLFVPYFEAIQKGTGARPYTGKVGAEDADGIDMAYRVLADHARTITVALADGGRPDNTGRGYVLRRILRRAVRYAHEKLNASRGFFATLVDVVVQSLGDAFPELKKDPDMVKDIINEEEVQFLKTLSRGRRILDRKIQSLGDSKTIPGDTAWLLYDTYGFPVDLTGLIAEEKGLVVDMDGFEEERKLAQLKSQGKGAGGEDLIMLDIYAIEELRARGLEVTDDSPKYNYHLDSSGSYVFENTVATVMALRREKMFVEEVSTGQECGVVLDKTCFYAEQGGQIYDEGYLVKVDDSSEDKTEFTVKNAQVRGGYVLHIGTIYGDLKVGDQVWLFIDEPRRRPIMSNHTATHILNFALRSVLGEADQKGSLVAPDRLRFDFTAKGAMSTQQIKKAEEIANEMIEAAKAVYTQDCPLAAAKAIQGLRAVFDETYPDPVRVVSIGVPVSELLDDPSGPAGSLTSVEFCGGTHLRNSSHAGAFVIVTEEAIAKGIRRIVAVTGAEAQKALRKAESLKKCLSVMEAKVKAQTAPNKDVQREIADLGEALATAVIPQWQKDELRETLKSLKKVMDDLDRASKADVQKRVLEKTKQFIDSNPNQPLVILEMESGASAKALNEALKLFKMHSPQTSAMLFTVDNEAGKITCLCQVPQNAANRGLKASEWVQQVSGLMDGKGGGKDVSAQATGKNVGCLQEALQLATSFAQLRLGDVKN", "details": "AARS C773 (P49588)"}, "[3]": {"target": "Cys residues in primary human T cells (Homo sapiens, UniProt Q86YS7)", "sequence (Q86YS7 whole entry)": "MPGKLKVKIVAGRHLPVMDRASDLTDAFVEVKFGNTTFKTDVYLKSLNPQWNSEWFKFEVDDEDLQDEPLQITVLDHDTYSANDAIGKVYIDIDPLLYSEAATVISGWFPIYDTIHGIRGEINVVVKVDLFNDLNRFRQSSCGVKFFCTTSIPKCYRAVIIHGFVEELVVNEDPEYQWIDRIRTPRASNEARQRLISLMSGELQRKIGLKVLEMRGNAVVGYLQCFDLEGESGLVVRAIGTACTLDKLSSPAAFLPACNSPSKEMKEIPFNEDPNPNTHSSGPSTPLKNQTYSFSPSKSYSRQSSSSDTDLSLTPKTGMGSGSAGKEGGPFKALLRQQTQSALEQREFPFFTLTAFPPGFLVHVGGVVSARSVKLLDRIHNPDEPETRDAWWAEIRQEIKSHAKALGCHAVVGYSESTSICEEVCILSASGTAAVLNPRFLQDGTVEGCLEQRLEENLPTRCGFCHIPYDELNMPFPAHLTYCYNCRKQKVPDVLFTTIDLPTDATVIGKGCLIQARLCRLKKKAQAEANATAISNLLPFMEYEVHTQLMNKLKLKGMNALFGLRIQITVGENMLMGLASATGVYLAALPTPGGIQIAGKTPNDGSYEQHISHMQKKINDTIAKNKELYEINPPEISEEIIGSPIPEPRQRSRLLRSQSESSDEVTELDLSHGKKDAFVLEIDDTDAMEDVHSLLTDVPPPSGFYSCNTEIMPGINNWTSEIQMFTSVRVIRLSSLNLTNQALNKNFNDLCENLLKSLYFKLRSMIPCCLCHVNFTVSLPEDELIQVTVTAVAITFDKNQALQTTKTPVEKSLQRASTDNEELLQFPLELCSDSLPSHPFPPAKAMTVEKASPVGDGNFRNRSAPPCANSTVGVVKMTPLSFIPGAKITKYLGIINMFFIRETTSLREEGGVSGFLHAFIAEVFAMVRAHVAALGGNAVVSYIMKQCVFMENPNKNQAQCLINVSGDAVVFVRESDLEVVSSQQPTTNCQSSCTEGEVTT", "details": "KIAA0528 C993 (Q86YS7)"}, "[4]": {"target": "T3, Cys residues in primary human T cells (Homo sapiens, UniProt O95081)", "T3 sequence (O95081 1-481)": "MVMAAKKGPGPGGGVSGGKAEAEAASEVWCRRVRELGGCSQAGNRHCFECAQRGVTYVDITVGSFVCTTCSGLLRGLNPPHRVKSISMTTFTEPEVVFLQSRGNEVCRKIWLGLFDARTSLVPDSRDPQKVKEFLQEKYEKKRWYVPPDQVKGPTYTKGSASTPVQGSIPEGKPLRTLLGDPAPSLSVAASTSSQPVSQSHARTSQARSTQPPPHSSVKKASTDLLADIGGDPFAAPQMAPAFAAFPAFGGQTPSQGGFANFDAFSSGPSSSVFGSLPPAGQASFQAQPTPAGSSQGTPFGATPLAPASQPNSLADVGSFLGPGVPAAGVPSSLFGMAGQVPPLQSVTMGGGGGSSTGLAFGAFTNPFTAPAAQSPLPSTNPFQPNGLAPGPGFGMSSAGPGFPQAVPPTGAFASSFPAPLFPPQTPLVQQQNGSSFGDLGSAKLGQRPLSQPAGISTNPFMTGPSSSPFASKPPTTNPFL", "details": "AGFG2 C39 (O95081)"}, "[5]": {"target": "Cys residues in primary human T cells (Homo sapiens, UniProt Q9NWZ3)", "sequence (Q9NWZ3 whole entry)": "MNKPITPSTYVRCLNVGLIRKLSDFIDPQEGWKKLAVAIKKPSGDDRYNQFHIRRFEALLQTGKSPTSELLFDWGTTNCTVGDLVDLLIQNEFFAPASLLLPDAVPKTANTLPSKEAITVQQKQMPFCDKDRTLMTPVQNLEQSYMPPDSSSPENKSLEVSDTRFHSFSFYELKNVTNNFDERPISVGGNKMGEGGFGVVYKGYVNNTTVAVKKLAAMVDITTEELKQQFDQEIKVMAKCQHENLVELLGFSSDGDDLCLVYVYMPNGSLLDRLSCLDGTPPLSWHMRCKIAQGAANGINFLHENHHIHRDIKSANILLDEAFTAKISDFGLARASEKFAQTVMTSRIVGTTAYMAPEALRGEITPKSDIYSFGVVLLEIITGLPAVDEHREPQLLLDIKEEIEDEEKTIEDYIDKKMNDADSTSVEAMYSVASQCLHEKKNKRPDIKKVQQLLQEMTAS", "details": "IRAK4 C13 (Q9NWZ3)"}, "[6]": {"target": "T4, Cys residues in primary human T cells (Homo sapiens, UniProt Q9NRW3)", "T4 sequence (Q9NRW3 1-190)": "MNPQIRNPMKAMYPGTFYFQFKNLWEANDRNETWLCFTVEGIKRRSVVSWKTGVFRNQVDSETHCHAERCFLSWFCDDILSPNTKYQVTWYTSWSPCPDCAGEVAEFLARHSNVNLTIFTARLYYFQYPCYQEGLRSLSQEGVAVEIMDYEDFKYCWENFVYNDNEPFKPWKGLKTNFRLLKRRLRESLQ", "details": "APOBEC3C C130 (Q9NRW3)"}},
  "note": "Where a name gives a salt, the structure may show the parent alone.",
  "data": [
    {"smiles": "COC(=O)/C=C/C(=O)OC", "note": "[DMF, dimethyl fumarate]", "values": [
      {"measurement": "R value (DMSO/DMF)", "setting": "[1]; DMF 10 μM 4h", "result": 1.68},
      {"measurement": "R value (DMSO/DMF)", "setting": "[1]; DMF 50 μM 1h", "result": 1.81},
      {"measurement": "R value (DMSO/DMF)", "setting": "[1]; DMF 50 μM 2h", "result": 2.44},
      {"measurement": "R value (DMSO/DMF)", "setting": "[1]; DMF 50 μM 4h", "result": 4.3},
      {"measurement": "R value (DMSO/DMF)", "setting": "[2]; DMF 10 μM 4h", "result": 2.84},
      {"measurement": "R value (DMSO/DMF)", "setting": "[2]; DMF 50 μM 1h", "result": 9.34},
      {"measurement": "R value (DMSO/DMF)", "setting": "[2]; DMF 50 μM 2h", "result": 10.16},
      {"measurement": "R value (DMSO/DMF)", "setting": "[2]; DMF 50 μM 4h", "result": 12.75},
      {"measurement": "R value (DMSO/DMF)", "setting": "[3]; DMF 10 μM 4h", "result": 1.4},
      {"measurement": "R value (DMSO/DMF)", "setting": "[3]; DMF 50 μM 4h", "result": 4.38},
      {"measurement": "R value (DMSO/DMF)", "setting": "[4]; DMF 10 μM 4h", "result": 1.42},
      {"measurement": "R value (DMSO/DMF)", "setting": "[4]; DMF 50 μM 2h", "result": 3.85},
      {"measurement": "R value (DMSO/DMF)", "setting": "[4]; DMF 50 μM 4h", "result": 6.39},
      {"measurement": "R value (DMSO/DMF)", "setting": "[5]; DMF 50 μM 1h", "result": 8.3},
      {"measurement": "R value (DMSO/DMF)", "setting": "[5]; DMF 50 μM 4h", "result": 20},
      {"measurement": "R value (DMSO/DMF)", "setting": "[6]; DMF 10 μM 4h", "result": 1.92},
      {"measurement": "R value (DMSO/DMF)", "setting": "[6]; DMF 50 μM 1h", "result": 8.6},
      {"measurement": "R value (DMSO/DMF)", "setting": "[6]; DMF 50 μM 2h", "result": 20},
      {"measurement": "R value (DMSO/DMF)", "setting": "[6]; DMF 50 μM 4h", "result": 20}
    ]}
  ]
}
